US10620214B2, “Chloroalkane penetration method for quantifying access of a molecule into a cell” (TRUSTEES OF TUFTS COLLEGE, priority 2016, dated 2020)

Tested on: HaloEnzyme-GFP-expressing HeLa cell line
Assay: Chloroalkane Penetration Assay (CAPA), cytosolic access
Type: cell-based
Text: FIG. 1A provides a schematic showing the experimental procedure of CAPA, which uses a HaloEnzyme-GFP-expressing HeLa cell line. […] For CAPA, cells are pre-treated with vehicle or peptide, washed, and chased with HTag-TAMRA. Cells treated with cell-penetrant molecules have had their HaloEnzyme blocked, thus preventing the HTag-TAMRA from covalently labeling the cells. In this schematic, the molecule of interest is a peptide.
FIG. 1C provides a graph showing the dose-dependent response curve of HTag-TAMRA signal after pre-incubation with different concentrations of HTag-cTMP, HTag-DD5o, and the negatively charged, linear variant HTag-DD5-neg. Data was normalized using the values obtained for vehicle (0% HTag-TAMRA signal inhibition) and for vehicle with no HTag-TAMRA added (100% signal inhibition). Points are means from three independent experiments and error bars show standard deviation.
The CAPA method uses a cell line that stably expresses a cytosolically-oriented protein as a fusion with GFP and Haloenzyme. Haloenzyme is a modified bacterial chloroalkane dehalogenase that covalently labels itself with the small, otherwise inert Haloligand functional group. If an exogenously added molecule bearing the Haloligand (a small chloroalkane) reaches the cytosol, it reacts exclusively with the Haloenzyme and blocks its active site. Following this incubation period, the amount of unreacted Haloenzyme was measured by chasing with a Haloligand-bearing dye (here, Htag-TAMRA). The relative amount of red cellular fluorescence after this chase was then quantified by flow cytometry. The red signal reported directly on the amount of free Haloenzyme, which is inversely proportional to the degree to which the added molecule accessed the cytoplasm during the incubation period.
Halo-GFP-Mitochondrial targeted (Mito.)+mCherry-dihydrofolate reductase (DHFR) HeLa cells were obtained from the Chenoweth Lab as described by (Ballister et al., Nat. Commun. 2014. 5, 1-9), which is incorporated herein by reference. The expression vector used for the incorporation of GFP-Haloenzyme is shown at FIG. 3. Cells were cultured using DMEM+10% FBS+1% Pen/Strep+1 μg/mL puromycin. For experiments, cells were seeded in a 24-well plate the day before at 1.0×10^5 cells/well. Materials for cell culture were purchased from Thermo Scientific.
Cells were rinsed 1× with PBS, then treated with peptides in acidified Opti-MEM (0.15% 6N HCl) for 4 hours. Media was aspirated and cells were washed for 30 min with phenol red-free DMEM+10% FBS+1% pen/strep. Cells were chased with 5 μM HTag-TAMRA (Promega) in phenol red-free DMEM+10% FBS+1% pen/strep for 30 min. Cells were washed for 15 min with phenol red-free DMEM+10% FBS+1% pen/strep. Cells were rinsed once with phosphate buffered saline (PBS), then trypsinized and transferred to 1.5 mL Eppendorf tubes. Cells were pelleted and washed twice with PBS. Cell pellet was resuspended in 250 μL of PBS and 200 μL were transferred to 96-well plate for flow cytometry analysis. Data was gated for live cells measuring 10,000 cells per sample. Mean fluorescence intensity was obtained in the Yellow channel for HTag-TAMRA, and data was normalized. Background yellow fluorescence was observed both by flow cytometry and microscopy due to the constituent expression of mCherry-DHFR, but the signal observed for HTag-TAMRA-treated cells was 10-fold higher than background.

[1] = 50 μM inhibitor for 1 hr, then biomolecule 4 hr at 37° C., FIG. 5D

| SMILES | cytosolic penetration at 37° C. versus 4° C. | effect of EIPA on cytosolic penetration [1] | effect of chlorpromazine on cytosolic penetration [1] | time course of cytosolic penetration (FIG. 5A) |
| --- | --- | --- | --- | --- |
| N=C(N)NCCC[C@H](NC(=O)[C@H](CCCNC(=N)N)NC(=O)[C@H](CCCNC(=N)N)NC(=O)[C@H](CCCNC(=N)N)NC(=O)[C@H](CCCNC(=N)N)NC(=O)[C@H](CCCNC(=N)N)NC(=O)[C@H](CCCNC(=N)N)NC(=O)[C@H](CCCNC(=N)N)NC(=O)[C@H](CCCNC(=N)N)NC(=O)CCC(=O)NCCOCCOCCCCCCCl)C(N)=O [Arg9] | significantly greater at 37 °C compared to 4 °C | no significant reduction in cytosolic penetration | – | – |
| N[C@@H](Cc1c[nH]c2ccccc12)C(=O)O [Trp] | – | no significant reduction in cytosolic penetration | no effect | time-dependent cytosolic penetration |
